According to US9944647B2 (Incyte Corporation, priority 2015, dated 2018):

The molecules below were run against LSD-1 enzyme (Homo sapiens (Human), UniProt O60341) (assay: LANCE LSD1/KDM1A demethylase assay (LSD1 histone demethylase biochemical assay)). Details: 1 nM LSD-1 enzyme, 1 hour preincubation at 25° C., Biotin-labeled Histone H3 peptide substrate.

`Cc1ccc(-c2c(-c3ccc(C#N)cc3)nc(OC[C@@H]3CCCN(C)C3)n3ccnc23)cn1` [Example 73, 4-[5-{[(3R)-1-methylpiperidin-3-yl]methoxy}-8-(6-methylpyridin-3-yl)imidazo[1,2-c]pyrimidin-7-yl]benzonitrile] and `CN1CC[C@@H](COc2nc(-c3ccc(C#N)cc3)c(-c3ccc(N(C)C)nc3)c3nccn23)C1` [Example 21, 4-(8-[6-(dimethylamino)pyridin-3-yl]-5-{[(3R)-1-methylpyrrolidin-3-yl]methoxy}imidazo[1,2-c]pyrimidin-7-yl)benzonitrile] fall in the same range of IC50: 50 to 500 nM for the first, 50 to 500 nM for the second.

`CN1CCC[C@@H](COc2nc(-c3ccc(C#N)cc3)c(-c3ccc4c(c3)n(C)c(=O)n4C)c3nccn23)C1` [Example 44, 4-(8-(1,3-dimethyl-2-oxo-2,3-dihydro-1H-benzimidazol-5-yl)-5-{[(3R)-1-methylpiperidin-3-yl]methoxy}imidazo[1,2-c]pyrimidin-7-yl)benzonitrile] and `CN1CCC[C@@H](COc2nc(-c3ccc(C#N)cc3)c(-c3ccc4c(c3)c(N)nn4C)c3nccn23)C1` [Example 42, 4-(8-(3-amino-1-methyl-1H-indazol-5-yl)-5-{[(3R)-1-methylpiperidin-3-yl]methoxy}imidazo[1,2-c]pyrimidin-7-yl)benzonitrile] cannot be ordered by IC50: 50 to 500 nM for the first, at most 50 nM for the second.

`CN1CCC[C@@H](COc2nc(-c3ccc(C#N)cc3)c(-c3cnc4c(c3)CCN4C)c3nccn23)C1` [Example 77, 4-(8-(1-mcthyl-2.3-dihydro-1H-pyrrolo[2,3-b]pyridin-5-yl)-5-{[(3R)-1-methylpiperidin-3-yl]methoxy}imidazo[1,2-c]pyrimidin-7-yl)benzonitrile] and `Cc1ncc(-c2c(-c3ccc(C#N)cc3)nc(OC[C@@H]3CCCN(C)C3)n3ccnc23)cc1C#N` [Example 70, 5-(7-(4-cyanophenyl)-5-{[(3R)-1-methylpiperidin-3-yl]methoxy}imidazo[1,2-c]pyrimidin-8-yl)-2-methylnicotinonitrile] cannot be ordered by IC50: at most 50 nM for the first, at most 50 nM for the second.

`COc1ccc(-c2c(-c3ccc(C#N)cc3)nc(OC[C@@H]3CCCN(CCO)C3)n3ccnc23)cn1` [Example 56, 4-[5-{[(3R)-1-(2-hydroxyethyl)piperidin-3-yl]methoxy}-8-(6-methoxypyridin-3-yl)imidazo[1,2-c]pyrimidin-7-yl]benzonitrile] and `CN1CCC[C@@H](COc2nc(-c3ccc(C#N)cc3)c(-c3ccc4c(c3)OCC(=O)N4C)c3nccn23)C1` [Example 15, 4-(8-(4-methyl-3-oxo-3,4-dihydro-2H-1,4-benzoxazin-7-yl)-5-{[(3R)-1-methylpiperidin-3-yl]methoxy}imidazo[1,2-c]pyrimidin-7-yl)benzonitrile] cannot be ordered by IC50: at most 50 nM for the first, 50 to 500 nM for the second.

`COc1ncc(-c2c(-c3ccc(C#N)cc3)nc(N3CCC(N(C)C)CC3)n3ccnc23)cc1C` [Example 53, 4-[5-[4-(dimethylamino)piperidin-1-yl]-8-(6-methoxy-5-methylpyridin-3-yl)imidazo[1,2-c]pyrimidin-7-yl]benzonitrile] and `CC(C)c1ccc(-c2c(-c3ccc(C#N)cc3)nc(N3CCC(N(C)C)CC3)n3ccnc23)cn1` [Example 118, 4-[5-[4-(dimethylamino)piperidin-1-yl]-8-(6-isopropylpyridin-3-yl)imidazo[1,2-c]pyrimidin-7-yl]benzonitrile] cannot be ordered by IC50: at most 50 nM for the first, 50 to 500 nM for the second.

`CN(C)C1CCN(c2nc(-c3ccc(C#N)cc3)c(-c3cc(F)c4c(c3)n(C)c(=O)n4C)c3nccn23)CC1` [Example 128, 4-[5-[4-(dimethylamino)piperidin-1-yl]-8-(7-fluoro-1,3-dimethyl-2-oxo-2,3-dihydro-1H-benzimidazol-5-yl)imidazo[1,2-c]pyrimidin-7-yl]benzonitrile] and `CN1CCC[C@@H](COc2nc(-c3ccc(C#N)cc3)c(-c3ccc(CN(C)C(=O)N(C)C)cc3)c3nccn23)C1` [Example 86, N-[4-(7-(4-cyanophenyl)-5-{[(3R)-1-methylpiperidin-3-y1]methoxy}imidazo[1,2-c]pyrimidin-8-yl)benzyl]-N,N′,N′-trimethylurea] cannot be ordered by IC50: at most 50 nM for the first, at most 50 nM for the second.
